Data reported in patent publication US20260092071A1, “COMPOUNDS AND COMPOSITIONS AS SMARCA2/4 DEGRADERS AND USES THEREOF” (REGENTS OF THE UNIVERSITY OF MICHIGAN, priority 2022, published 2026).

Experiments:
[1] = target: SMARCA4 (Homo sapiens, UniProt P51532); test: HiBit assay in engineered HT1080 CRISPR knock-in cell, 6 hrs (B series), SMARCA4; type: cell-based; conditions: 6 hrs incubation; for DC50: HT1080 CRISPR knock-in cells, read-out: SMARC A4 HT1080 HiBit DC50; for Dmax: HT-1080, HT1080 CRISPR knock-in cells, read-out: SMARC A4 HT1080 HiBit Dmax(%)
Sequence of SMARCA4 (P51532 whole entry): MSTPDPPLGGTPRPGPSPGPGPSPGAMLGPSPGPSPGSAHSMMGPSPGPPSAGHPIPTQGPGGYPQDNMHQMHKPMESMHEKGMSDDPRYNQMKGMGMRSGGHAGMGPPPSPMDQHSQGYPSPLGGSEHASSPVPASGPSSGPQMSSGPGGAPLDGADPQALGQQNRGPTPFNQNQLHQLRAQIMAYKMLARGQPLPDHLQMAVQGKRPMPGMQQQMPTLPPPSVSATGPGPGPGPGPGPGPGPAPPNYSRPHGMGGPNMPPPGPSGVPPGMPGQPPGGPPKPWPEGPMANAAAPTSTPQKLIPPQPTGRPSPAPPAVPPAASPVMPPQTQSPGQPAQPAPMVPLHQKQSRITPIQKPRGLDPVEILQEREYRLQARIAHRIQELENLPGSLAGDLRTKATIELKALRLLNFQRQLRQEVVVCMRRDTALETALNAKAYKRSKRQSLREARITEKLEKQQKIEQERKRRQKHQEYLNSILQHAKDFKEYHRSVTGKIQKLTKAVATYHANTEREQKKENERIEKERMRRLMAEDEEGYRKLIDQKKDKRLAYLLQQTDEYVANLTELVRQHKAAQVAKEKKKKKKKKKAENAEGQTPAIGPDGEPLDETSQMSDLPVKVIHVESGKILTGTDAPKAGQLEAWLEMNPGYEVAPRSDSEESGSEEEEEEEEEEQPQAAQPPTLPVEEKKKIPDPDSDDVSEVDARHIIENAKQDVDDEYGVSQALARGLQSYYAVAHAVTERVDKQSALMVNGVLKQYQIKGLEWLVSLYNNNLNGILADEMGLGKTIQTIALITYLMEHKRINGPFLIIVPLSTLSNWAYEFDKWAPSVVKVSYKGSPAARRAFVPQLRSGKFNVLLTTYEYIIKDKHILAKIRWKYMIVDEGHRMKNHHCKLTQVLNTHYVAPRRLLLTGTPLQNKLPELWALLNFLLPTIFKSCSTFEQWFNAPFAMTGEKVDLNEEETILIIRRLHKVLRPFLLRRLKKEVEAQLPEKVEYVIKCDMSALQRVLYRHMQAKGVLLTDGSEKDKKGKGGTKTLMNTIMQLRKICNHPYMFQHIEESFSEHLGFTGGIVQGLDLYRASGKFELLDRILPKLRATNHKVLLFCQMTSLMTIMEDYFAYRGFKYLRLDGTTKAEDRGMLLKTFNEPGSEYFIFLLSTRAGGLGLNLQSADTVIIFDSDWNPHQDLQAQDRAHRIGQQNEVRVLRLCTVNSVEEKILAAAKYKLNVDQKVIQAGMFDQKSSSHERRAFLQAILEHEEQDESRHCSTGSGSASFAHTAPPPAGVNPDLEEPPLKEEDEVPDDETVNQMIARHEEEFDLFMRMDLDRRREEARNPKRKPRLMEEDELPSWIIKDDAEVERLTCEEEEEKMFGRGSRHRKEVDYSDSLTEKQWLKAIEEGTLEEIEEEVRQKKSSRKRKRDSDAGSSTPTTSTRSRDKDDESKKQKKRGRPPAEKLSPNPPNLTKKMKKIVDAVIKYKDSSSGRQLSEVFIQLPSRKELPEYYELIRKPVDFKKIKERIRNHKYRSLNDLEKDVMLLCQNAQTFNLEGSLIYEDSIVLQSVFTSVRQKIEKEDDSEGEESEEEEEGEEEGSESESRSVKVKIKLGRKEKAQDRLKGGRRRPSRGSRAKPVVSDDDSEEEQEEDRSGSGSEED
How it was run: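 HT1080 CRISPR knock-in cells carrying the HiBiT tag were seeded onto compounds (final DMSO 0.1%) and incubated 6 hrs at 37° C, 5% CO2. Remaining tagged protein was detected by lytic HiBiT luminescence after adding LgBiT protein and substrate, with LgBiT-free wells serving as negative control.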

[2] = target: SMARCA2 (Homo sapiens, UniProt P51531); test: HiBit assay in engineered HT1080 CRISPR knock-in cell, 6 hrs (B series), SMARCA2; type: cell-based; conditions: 6 hrs incubation; for DC50: HT1080 CRISPR knock-in cells, read-out: SMARC A2 HT1080 HiBit DC50; for Dmax: HT-1080, HT1080 CRISPR knock-in cells, read-out: SMARC A2 HT1080 HiBit Dmax (%)
Sequence of SMARCA2 (P51531 whole entry): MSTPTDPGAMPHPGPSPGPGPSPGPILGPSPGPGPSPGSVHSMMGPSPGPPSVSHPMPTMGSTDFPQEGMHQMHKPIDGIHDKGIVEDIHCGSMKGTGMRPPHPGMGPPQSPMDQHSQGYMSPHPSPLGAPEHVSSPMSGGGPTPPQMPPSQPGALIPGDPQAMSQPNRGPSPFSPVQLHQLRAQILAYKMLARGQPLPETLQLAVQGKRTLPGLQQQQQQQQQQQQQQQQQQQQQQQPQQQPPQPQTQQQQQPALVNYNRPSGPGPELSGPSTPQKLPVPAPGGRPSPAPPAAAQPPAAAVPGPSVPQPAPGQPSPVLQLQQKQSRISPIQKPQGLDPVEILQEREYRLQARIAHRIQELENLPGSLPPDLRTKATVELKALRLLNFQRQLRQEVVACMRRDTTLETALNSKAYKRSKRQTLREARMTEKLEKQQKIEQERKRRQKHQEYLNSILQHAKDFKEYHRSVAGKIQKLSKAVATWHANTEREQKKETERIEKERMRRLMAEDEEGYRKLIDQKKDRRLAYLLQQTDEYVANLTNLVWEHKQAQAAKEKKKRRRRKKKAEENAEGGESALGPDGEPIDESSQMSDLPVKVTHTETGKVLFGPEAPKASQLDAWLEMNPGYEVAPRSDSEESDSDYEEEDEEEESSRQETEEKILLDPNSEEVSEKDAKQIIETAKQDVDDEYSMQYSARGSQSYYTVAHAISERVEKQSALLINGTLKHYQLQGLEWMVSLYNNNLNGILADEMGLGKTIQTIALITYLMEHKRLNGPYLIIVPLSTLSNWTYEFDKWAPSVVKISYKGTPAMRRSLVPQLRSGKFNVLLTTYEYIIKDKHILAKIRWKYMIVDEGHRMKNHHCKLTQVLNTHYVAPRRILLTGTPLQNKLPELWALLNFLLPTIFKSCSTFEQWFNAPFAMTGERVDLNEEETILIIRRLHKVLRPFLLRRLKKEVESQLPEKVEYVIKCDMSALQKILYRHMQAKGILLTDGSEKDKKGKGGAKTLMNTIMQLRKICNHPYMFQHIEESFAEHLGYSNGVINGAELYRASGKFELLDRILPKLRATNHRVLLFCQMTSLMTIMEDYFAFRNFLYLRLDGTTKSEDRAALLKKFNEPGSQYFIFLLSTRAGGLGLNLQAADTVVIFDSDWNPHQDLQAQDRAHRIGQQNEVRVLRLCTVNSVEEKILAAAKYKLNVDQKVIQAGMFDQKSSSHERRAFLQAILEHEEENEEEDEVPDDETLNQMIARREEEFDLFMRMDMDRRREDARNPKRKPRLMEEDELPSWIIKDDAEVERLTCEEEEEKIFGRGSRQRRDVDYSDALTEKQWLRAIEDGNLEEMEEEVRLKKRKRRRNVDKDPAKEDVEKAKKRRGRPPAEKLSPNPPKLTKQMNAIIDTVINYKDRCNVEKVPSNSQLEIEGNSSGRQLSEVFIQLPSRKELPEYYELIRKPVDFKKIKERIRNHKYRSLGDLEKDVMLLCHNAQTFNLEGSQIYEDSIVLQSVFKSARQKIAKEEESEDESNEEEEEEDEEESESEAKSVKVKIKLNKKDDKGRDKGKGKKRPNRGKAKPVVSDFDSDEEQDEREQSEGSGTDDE
How it was run: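 Remaining SMARCA2 protein measured as HiBiT luminescence after cell lysis with LgBiT plus lytic substrate. Engineered HT1080 knock-in cells (2000/well) were first treated 6 h at 37 °C with compound at a final 0.1% DMSO.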

`CNC(=O)[C@@H]1C[C@@H](O)CN1C(=O)[C@H](C(C)C)n1cc([C@H]2CC[C@H](CN3CCC(c4ccc5c(c4)-n4c(nc(=O)c6c(Cl)cccc64)C5(C)C)CC3)CC2)nn1` [Compound B59, (2S,4R)-1-((S)-2-(4-((1r,4S)-4-((4-(4-chloro-7,7-dimethyl-5-oxo-5,7-dihydroindolo[1,2-a]quinazolin-10-yl)piperidin-1-yl)methyl)cyclohexyl)-1H-1,2,3-triazol-1-yl)-3-methylbutanoyl)-4-hydroxy-N-methylpyrrolidine-2-carboxamide] was tested. Which DC50 [1] did it give?
The DC50 was greater than 1000 nM.

And the Dmax [1]?
Its Dmax is less than 50%.

What about the DC50 [2] of the same molecule?
The DC50 was 100 to 500 nM.

And the Dmax [2]?
The Dmax was 50 to 69%.

With `Cc1ncsc1-c1ccc([C@H](C)NC(=O)[C@@H]2C[C@@H](O)CN2C(=O)[C@@H](c2cc(OCCn3cc(-c4ccc5c(c4)-n4c(nc(=O)c6c(Cl)cccc64)C5(C)C)cn3)no2)C(C)C)cc1` [Compound B60, (2S,4R)-1-(2-(3-(2-(4-(4-chloro-7,7-dimethyl-5-oxo-5,7-dihydroindolo[1,2-a]quinazolin-10-yl)-1H-pyrazol-1-yl)ethoxy)isoxazol-5-yl)-3-methylbutanoyl)-4-hydroxy-N-((S)-1-(4-(4-methylthiazol-5-yl)phenyl)ethyl)pyrrolidine-2-carboxamide] as the molecule, how does the DC50 [1] read?
Its DC50 is less than 100 nM.

And the Dmax [1]?
The Dmax was less than 50%.

And the DC50 [2]?
Its DC50 is less than 100 nM.

And the Dmax [2]?
Its Dmax is less than 50%.

How did the DC50 [1] turn out when `Cc1ncsc1-c1ccc([C@H](C)NC(=O)[C@@H]2C[C@@H](O)CN2C(=O)[C@H](C(C)C)n2cc(CCCCCN3CCC(c4ccc5c(c4)-n4c(nc(=O)c6c(Cl)cccc64)C5(C)C)CC3)nn2)cc1` [Compound B61, (2S,4R)-1-((S)-2-(4-(5-(4-(4-chloro-7,7-dimethyl-5-oxo-5,7-dihydroindolo[1,2-a]quinazolin-10-yl)piperidin-1-yl)pentyl)-1H-1,2,3-triazol-1-yl)-3-methylbutanoyl)-4-hydroxy-N-((S)-1-(4-(4-methylthiazol-5-yl)phenyl)ethyl)pyrrolidine-2-carboxamide] was run?
Its DC50 is less than 100 nM.

What about the Dmax [1] of the same molecule?
Its Dmax is 70 to 90%.

What about the DC50 [2] of the same molecule?
The DC50 was less than 100 nM.

What about the Dmax [2] of the same molecule?
Its Dmax is greater than 90%.

For `Cc1ncsc1-c1ccc([C@H](C)NC(=O)[C@@H]2C[C@@H](O)CN2C(=O)C(c2cc(CN3CCC(c4ccc5c(c4)-n4c(nc(=O)c6c(Cl)cccc64)C5(C)C)CC3)no2)C(C)C)cc1` (stereo partly drawn) [Compound B62, (2S,4R)-1-(2-(3-((4-(4-chloro-7,7-dimethyl-5-oxo-5,7-dihydroindolo[1,2-a]quinazolin-10-yl)piperidin-1-yl)methyl)isoxazol-5-yl)-3-methylbutanoyl)-4-hydroxy-N-((S)-1-(4-(4-methylthiazol-5-yl)phenyl)ethyl)pyrrolidine-2-carboxamide], which DC50 [1] is on record?
Its DC50 is greater than 1000 nM.

What about the Dmax [1] of the same molecule?
The Dmax was less than 50%.

And the DC50 [2]?
Its DC50 is less than 100 nM.

And the Dmax [2]?
The Dmax was 50 to 69%.

With `Cc1ncsc1-c1ccc([C@H](C)NC(=O)[C@@H]2C[C@@H](O)CN2C(=O)[C@@H](NC(=O)CC2CCC(N3CCC(c4ccc5c(c4)-n4c(nc(=O)c6c(Cl)cccc64)C5(C)C)CC3)CC2)C(C)(C)C)cc1` (stereo partly drawn) [Compound B63, (2S,4R)-1-((S)-2-(2-(4-(4-(4-chloro-7,7-dimethyl-5-oxo-5,7-dihydroindolo[1,2-a]quinazolin-10-yl)piperidin-1-yl)cyclohexyl)acetamido)-3,3-dimethylbutanoyl)-4-hydroxy-N-((S)-1-(4-(4-methylthiazol-5-yl)phenyl)ethyl)pyrrolidine-2-carboxamide] as the molecule, how does the DC50 [1] read?
The DC50 was 100 to 500 nM.

What about the Dmax [1] of the same molecule?
The Dmax was less than 50%.

And the DC50 [2]?
Its DC50 is less than 100 nM.

What about the Dmax [2] of the same molecule?
Its Dmax is greater than 90%.

What does the source list for `Cc1ncsc1-c1ccc([C@H](C)NC(=O)[C@@H]2C[C@@H](O)CN2C(=O)[C@@H](NC(=O)CCCCn2cc(-c3ccc4c(c3)-n3c(nc(=O)c5c(Cl)cccc53)C4(C)C)cn2)C(C)(C)C)cc1` [Compound B64, (2S,4R)-1-((S)-2-(5-(4-(4-chloro-7,7-dimethyl-5-oxo-5,7-dihydroindolo[1,2-a]quinazolin-10-yl)-1H-pyrazol-1-yl)pentanamido)-3,3-dimethylbutanoyl)-4-hydroxy-N-((S)-1-(4-(4-methylthiazol-5-yl)phenyl)ethyl)pyrrolidine-2-carboxamide]?
DC50 [1]: > 1000 nM; Dmax [1]: < 50%; DC50 [2]: 100 to 500 nM; Dmax [2]: < 50%

What does the source list for `C[C@H](NC(=O)[C@@H]1C[C@@H](O)CN1C(=O)[C@@H](NC(=O)[C@H]1CC[C@H](C(=O)N2CCC(c3ccc4c(c3)-n3c(nc(=O)c5c(Cl)cccc53)C4(C)C)CC2)CC1)C(C)(C)C)c1ccc(-c2ncnn2C)cc1` [Compound B65, (2S,4R)-1-((S)-2-((1r,4S)-4-(4-(4-chloro-7,7-dimethyl-5-oxo-5,7-dihydroindolo[1,2-a]quinazolin-10-yl)piperidine-1-carbonyl)cyclohexane-1-carboxamido)-3,3-dimethylbutanoyl)-4-hydroxy-N-((S)-1-(4-(1-methyl-1H-1,2,4-triazol-5-yl)phenyl)ethyl)pyrrolidine-2-carboxamide]?
DC50 [1]: > 1000 nM; Dmax [1]: < 50%; DC50 [2]: 100 to 500 nM; Dmax [2]: < 50%

What does the source list for `Cc1ncsc1-c1ccc([C@H](C)NC(=O)[C@@H]2C[C@@H](O)CN2C(=O)[C@H](C(C)C)n2cc(C3CCN(CCCN4CCC(c5ccc6c(c5)-n5c(nc(=O)c7c(Cl)cccc75)C6(C)C)CC4)CC3)nn2)cc1` [Compound B66, (2S,4R)-1-((S)-2-(4-(1-(3-(4-(4-chloro-7,7-dimethyl-5-oxo-5,7-dihydroindolo[1,2-a]quinazolin-10-yl)piperidin-1-yl)propyl)piperidin-4-yl)-1H-1,2,3-triazol-1-yl)-3-methylbutanoyl)-4-hydroxy-N—((S)-1-(4-(4-methylthiazol-5-yl)phenyl)ethyl)pyrrolidine-2-carboxamide]?
DC50 [1]: < 100 nM; Dmax [1]: > 90%; DC50 [2]: < 100 nM; Dmax [2]: > 90%

Which results are given for `Cc1ncsc1-c1ccc([C@H](C)NC(=O)[C@@H]2C[C@@H](O)CN2C(=O)[C@H](C(C)C)n2cc(C3CCN(CCN4CCC(c5ccc6c(c5)-n5c(nc(=O)c7c(Cl)cccc75)C6(C)C)CC4)CC3)nn2)cc1` [Compound B67, (2S,4R)-1-((S)-2-(4-(1-(2-(4-(4-chloro-7,7-dimethyl-5-oxo-5,7-dihydroindolo[1,2-a]quinazolin-10-yl)piperidin-1-yl)ethyl)piperidin-4-yl)-1H-1,2,3-triazol-1-yl)-3-methylbutanoyl)-4-hydroxy-N-((S)-1-(4-(4-methylthiazol-5-yl)phenyl)ethyl)pyrrolidine-2-carboxamide]?
DC50 [1]: < 100 nM; Dmax [1]: 70 to 90%; DC50 [2]: < 100 nM; Dmax [2]: > 90%

Which DC50 [1] does the source give for `Cc1ncsc1-c1ccc([C@H](C)NC(=O)[C@@H]2C[C@@H](O)CN2C(=O)[C@@H](n2cc([C@H](C)N3CCC(c4ccc5c(c4)-n4c(nc(=O)c6c(Cl)cccc64)C5(C)C)CC3)nn2)C(C)(C)C)cc1` [Compound B68, (2S,4R)-1-((S)-2-(4-((S)-1-(4-(4-chloro-7,7-dimethyl-5-oxo-5,7-dihydroindolo[1,2-a]quinazolin-10-yl)piperidin-1-yl)ethyl)-1H-1,2,3-triazol-1-yl)-3,3-dimethylbutanoyl)-4-hydroxy-N-((S)-1-(4-(4-methylthiazol-5-yl)phenyl)ethyl)pyrrolidine-2-carboxamide] here?
Its DC50 is 501 to 1000 nM.

What about the Dmax [1] of the same molecule?
The Dmax was less than 50%.

And the DC50 [2]?
The DC50 was less than 100 nM.

And the Dmax [2]?
The Dmax was greater than 90%.

With `Cc1ncsc1-c1ccc([C@H](C)NC(=O)[C@@H]2C[C@@H](O)CN2C(=O)[C@@H](n2cc(CN3CCC(c4ccc5c(c4)-n4c(nc(=O)c6c(Cl)cccc64)C5(C)C)CC3)nn2)C(C)(C)C)cc1` [Compound B69, (2S,4R)-1-((S)-2-(4-((4-(4-chloro-7,7-dimethyl-5-oxo-5,7-dihydroindolo[1,2-a]quinazolin-10-yl)piperidin-1-yl)methyl)-1H-1,2,3-triazol-1-yl)-3,3-dimethylbutanoyl)-4-hydroxy-N-((S)-1-(4-(4-methylthiazol-5-yl)phenyl)ethyl)pyrrolidine-2-carboxamide] as the molecule, how does the DC50 [1] read?
Its DC50 is 100 to 500 nM.

What about the Dmax [1] of the same molecule?
Its Dmax is less than 50%.

What about the DC50 [2] of the same molecule?
The DC50 was less than 100 nM.

And the Dmax [2]?
The Dmax was greater than 90%.

What does the source list for `Cc1ncsc1-c1ccc([C@H](C)NC(=O)[C@@H]2C[C@@H](O)CN2C(=O)[C@@H](NC(=O)[C@H]2CC[C@H](CN3CCC(c4ccc5c(c4)-n4c(nc(=O)c6c(Br)cccc64)C5(C)C)CC3)CC2)C(C)(C)C)cc1` [Compound B70, (2S,4R)-1-((S)-2-((11,4S)-4-((4-(4-bromo-7,7-dimethyl-5-oxo-5,7-dihydroindolo[1,2-a]quinazolin-10-yl)piperidin-1-yl)methyl)cyclohexane-1-carboxamido)-3,3-dimethylbutanoyl)-4-hydroxy-N-((S)-1-(4-(4-methylthiazol-5-yl)phenyl)ethyl)pyrrolidine-2-carboxamide]?
DC50 [1]: < 100 nM; Dmax [1]: < 50%; DC50 [2]: < 100 nM; Dmax [2]: > 90%

`Cc1ncsc1-c1ccc([C@H](C)NC(=O)[C@@H]2C[C@@H](O)CN2C(=O)[C@@H](c2cc(OCCCn3cc(-c4ccc5c(c4)C(C)(C)c4nc(=O)c6c(Cl)cccc6n4-5)cn3)no2)C(C)C)cc1` [Compound B71, (2S,4R)-1-((R)-2-(3-(3-(4-(4-chloro-7,7-dimethyl-5-oxo-5,7-dihydroindolo[1,2-a]quinazolin-9-yl)-1H-pyrazol-1-yl)propoxy)isoxazol-5-yl)-3-methylbutanoyl)-4-hydroxy-N-((S)-1-(4-(4-methylthiazol-5-yl)phenyl)ethyl)pyrrolidine-2-carboxamide] was tested. Which DC50 [1] did it give?
The DC50 was greater than 1000 nM.

And the Dmax [1]?
Its Dmax is less than 50%.

And the DC50 [2]?
The DC50 was 100 to 500 nM.

And the Dmax [2]?
The Dmax was 50 to 69%.
